Test results taken from patent publication US10526271B2, “Compositions and methods related to half salts of herbicidal carboxylic acids” (Dow AgroSciences LLC, priority 2015, dated 2020).

Legend:
[1] = tested on: common lambsquarters (CHEAL); assay: Greenhouse postemergence weed control, common lambsquarters; assay type: in vivo; details: 800 g ae/ha, no adjuvant, 21 DAA
Method: (§1) Plant material was propagated in the Indianapolis greenhouses under warm temperature conditions of 26 to 28° C. and a 16 hour day length and 8 hour dark cycle. Natural light was supplemented with 1000-watt metal halide overhead lamps with an average illumination of 500 μE m−2 s−1 photosynthetic active radiation for 16 consecutive hours each day. Seeds of each species were planted in 10 cm square pots containing a potting soil, Metro-Mix 360®. Metro-mix 360® consists of Canadian sphagnum peat moss, coarse perlite, bark ash, a starter nutrient charge (with gypsum), a slow-release nitrogen fertilizer and dolomitic limestone. Plants were top watered prior to treatment and sub-irrigated after treatment. Plant material was fertilized three times a week with Jack's fertilizer solution (Jack's Professional 15-5-15 4 Ca 2 Mg fertilizer manufactured by JR PETERS INC.; 6656 Grant Way; Allentown, Pa. 18106). Appropriate amounts of herbicides were weighed and diluted with Indianapolis tap water.
(§2) All treatments were applied to selected plant species with a track sprayer (Generation III Research Sprayer manufactured by DeVries Manufacturing in Hollandale, Minn., USA) located in building 306, laboratory E1-483, at the Dow AgroSciences facility in Indianapolis, Ind. The track sprayer was calibrated to deliver 140 L/ha at 40 psi ([…]) pressure utilizing an 8002E even, flat fan nozzle. Track sprayer speed was set at 1.6 mph ([…]). Applications were made to replicates of each species in a randomized complete block design, with 4 replications per treatment.
(§3) All species were evaluated at 15 or 21 days after application (DAA). The treated plants and control plants were evaluated using a rating scale of 0-100%, wherein 0% indicates no injury or control of the vegetation and 100% indicates complete death of the plants.

[2] = tested on: sicklepod (CASOB); assay: Greenhouse postemergence weed control, sicklepod; assay type: in vivo; details: 800 g ae/ha, no adjuvant, 21 DAA
Method: as §1, §2, §3

[3] = tested on: redroot pigweed (AMARE); assay: Greenhouse postemergence weed control, redroot pigweed; assay type: in vivo; details: 800 g ae/ha, no adjuvant, 21 DAA
Method: as §1, §2, §3

[4] = tested on: common ragweed (AMBTR); assay: Greenhouse postemergence weed control, common ragweed; assay type: in vivo; details: 800 g ae/ha, no adjuvant, 21 DAA
Method: as §1, §2, §3

[5] = Volatility by thermogravometric analysis (TGA) weight loss at elevated temperature; assay type: physicochemical; details: 120° C., linear region of weight loss curve
Method: The volatility of the 2,4-D potassium half salt (as a concentrated aqueous suspension) was compared to that of 2,4-D acid (as technical solid), 2,4-D ethylhexyl ester (EHE, as technical liquid), and 2,4-D dimethylammonium (DMA) and 2,4-D dimethylethanolammonium (DMEA) salts (both as concentrated aqueous solutions) by thermogravometric analysis (TGA) weight loss at elevated temperature. Each of the 2,4-D samples was added in turn (approximately 25-30 mg) to the reservoir cup of a TA Instruments Model 2050 TGA instrument. The temperature was maintained at 120° C. and the weight loss was recorded as a function of time.
For the water-containing samples, rapid weight loss was observed during water removal followed by a linear region (constant rate of loss). Linear curve fitting was applied in this region of the curve to determine rate of 2,4-D loss in μg/min.

Structure (SMILES) | % Control CHEAL [1] | % Control CASOB [2] | % Control AMARE [3] | % Control AMBTR [4] | Rate of Loss [5]
N.O=C(O)COc1ccc(Cl)cc1Cl.O=C(O)COc1ccc(Cl)cc1Cl [2,4-D NH4 half-salt] | 74% | 100% | 91% | 100% | 
N.O=C(O)COc1ccc(Cl)cc1Cl [2,4-D NH4] | 92% | 100% | 95% | 99% | 
CN(C)CCO.O=C(O)COc1ccc(Cl)cc1Cl [2,4-D DMEA, 2,4-D dimethylethanolammonium] |  |  |  |  | 0.905 µg/min
O=C(O)COc1ccc(Cl)cc1Cl.O=C([O-])COc1ccc(Cl)cc1Cl.[K+] [2,4-D K Half Salt, 2,4-D Potassium Half Salt] | 84% | 100% | 91% | 100% | 0.132 µg/min
CNC.O=C(O)COc1ccc(Cl)cc1Cl [2,4-D DMA, 2,4-D dimethylammonium] | 73% | 95% | 91% | 100% | 1.5 µg/min
CCCCC(CC)COC(=O)COc1ccc(Cl)cc1Cl (stereo not drawn) [2,4-D EHE, 2,4-D ethylhexyl ester] |  |  |  |  | 11 µg/min
C[N+](C)(C)CCO.O=C([O-])COc1ccc(Cl)cc1Cl [2,4-D Choline] | 74% |  | 95% |  | 
O=C(O)COc1ccc(Cl)cc1Cl [2,4-D Acid, 2,4-dichlorophenoxyacetic acid] |  |  |  |  | 2.29 µg/min
O=C(O)COc1ccc(Cl)cc1Cl.O=C([O-])COc1ccc(Cl)cc1Cl.[Na+] [2,4-D Na half-salt, 2,4-D Sodium Half Salt] | 85% | 100% | 92% | 100% | 
